Test system: mouse
Assay: Toxicity by single intraperitoneal administration, LD50 (Litchfield and Wilcoxon)
Format: in vivo
Conditions: i.p., in words
Source text: The toxicity of AP 880 by single administration has been studied in comparison with the toxicity of ranitidine in mouse, by administration of larger and larger doses of compound (I) by the intraperitoneal route. The LD50 values, determined according to the method of Litchfield and Wilcoxon (J. Pharm. Exp. Ther. 96-99, (1949)) are reported in the following Table: […]

CN(C)Cc1ccc(CSCCNC(=C[N+](=O)[O-])NCc2ccc3c(c2)OCO3)o1 [AP 880, N-(2-(((5-(dimethylamino)-methyl-2-furanyl)-methyl)-thio)-ethyl)-N'-(3,4-methylenedioxybenzyl)-2-nitro-1,1-ethendiamine]
toxicity with respect to ranitidine: substantially lower toxicity

Reference: patent US4431664A, “Compound with antiulcerogenic activity, process for the preparation thereof and pharmaceutical composition therefrom” (Ausonia Farmaceutici s.r.l., priority 1981, dated 1984)
